What was measured:
Format in all cases: functional
[1] = system: RPMI-8226; assay: Antiproliferative activity against human RPMI-8226 cells assessed as growth inhibition measured after 48 hrs by NCI protocol based SRB assay
[2] = system: K562; assay: Antiproliferative activity against human K562 cells assessed as growth inhibition measured after 48 hrs by NCI protocol based SRB assay
[3] = system: HOP-62; assay: Antiproliferative activity against human HOP-62 cells assessed as growth inhibition measured after 48 hrs by NCI protocol based SRB assay
[4] = system: A549; assay: Antiproliferative activity against human A549 cells assessed as growth inhibition measured after 48 hrs by NCI protocol based SRB assay
[5] = system: NCI-H460; assay: Antiproliferative activity against human NCI-H460 cells assessed as growth inhibition measured after 48 hrs by NCI protocol based SRB assay
[6] = system: NCI-H322M; assay: Antiproliferative activity against human NCI-H322M cells assessed as growth inhibition measured after 48 hrs by NCI protocol based SRB assay
[7] = system: KM12; assay: Antiproliferative activity against human KM12 cells assessed as growth inhibition measured after 48 hrs by NCI protocol based SRB assay
[8] = system: SW-620; assay: Antiproliferative activity against human SW-620 cells assessed as growth inhibition measured after 48 hrs by NCI protocol based SRB assay
[9] = system: HCC 2998; assay: Antiproliferative activity against human HCC 2998 cells assessed as growth inhibition measured after 48 hrs by NCI protocol based SRB assay
[10] = system: HT-29; assay: Antiproliferative activity against human HT-29 cells assessed as growth inhibition measured after 48 hrs by NCI protocol based SRB assay
[11] = system: SF-539; assay: Antiproliferative activity against human SF-539 cells assessed as growth inhibition measured after 48 hrs by NCI protocol based SRB assay
[12] = system: SF-295; assay: Antiproliferative activity against human SF-295 cells assessed as growth inhibition measured after 48 hrs by NCI protocol based SRB assay
[13] = system: SF-268; assay: Antiproliferative activity against human SF-268 cells assessed as growth inhibition measured after 48 hrs by NCI protocol based SRB assay
[14] = system: SNB-19; assay: Antiproliferative activity against human SNB-19 cells assessed as growth inhibition measured after 48 hrs by NCI protocol based SRB assay
[15] = system: MDA-MB-435; assay: Antiproliferative activity against human MDA-MB-435 cells assessed as growth inhibition measured after 48 hrs by NCI protocol based SRB assay
[16] = system: SK-MEL-2; assay: Antiproliferative activity against human SK-MEL-2 cells assessed as growth inhibition measured after 48 hrs by NCI protocol based SRB assay
[17] = system: UACC-257; assay: Antiproliferative activity against human UACC-257 cells assessed as growth inhibition measured after 48 hrs by NCI protocol based SRB assay
[18] = system: IGROV-1; assay: Antiproliferative activity against human IGROV-1 cells assessed as growth inhibition measured after 48 hrs by NCI protocol based SRB assay
[19] = system: OVCAR-8; assay: Antiproliferative activity against human OVCAR-8 cells assessed as growth inhibition measured after 48 hrs by NCI protocol based SRB assay
[20] = system: MCF7; assay: Antiproliferative activity against human MCF7 cells assessed as growth inhibition measured after 48 hrs by NCI protocol based SRB assay
[21] = system: Hs-578T; assay: Antiproliferative activity against human Hs-578T cells assessed as growth inhibition measured after 48 hrs by NCI protocol based SRB assay
[22] = system: MDA-MB-468; assay: Antiproliferative activity against human MDA-MB-468 cells assessed as growth inhibition measured after 48 hrs by NCI protocol based SRB assay
[23] = system: MOLT-4; assay: Cytostatic activity in human MOLT-4 cells assessed as tumor growth inhibition measured after 48 hrs by NCI protocol based SRB assay
[24] = system: SR; assay: Cytostatic activity in human SR cells assessed as tumor growth inhibition measured after 48 hrs by NCI protocol based SRB assay
[25] = system: HOP-62; assay: Cytostatic activity in human HOP-62 cells assessed as tumor growth inhibition measured after 48 hrs by NCI protocol based SRB assay
[26] = system: HOP-92; assay: Cytostatic activity in human HOP-92 cells assessed as tumor growth inhibition measured after 48 hrs by NCI protocol based SRB assay
[27] = system: NCI-H460; assay: Cytostatic activity in human NCI-H460 cells assessed as tumor growth inhibition measured after 48 hrs by NCI protocol based SRB assay
[28] = system: NCI-H322M; assay: Cytostatic activity in human NCI-H322M cells assessed as tumor growth inhibition measured after 48 hrs by NCI protocol based SRB assay
[29] = system: NCI-H23; assay: Cytostatic activity in human NCI-H23 cells assessed as tumor growth inhibition measured after 48 hrs by NCI protocol based SRB assay
[30] = system: HCT-116; assay: Cytostatic activity in human HCT-116 cells assessed as tumor growth inhibition measured after 48 hrs by NCI protocol based SRB assay
[31] = system: HCC 2998; assay: Cytostatic activity in human HCC 2998 cells assessed as tumor growth inhibition measured after 48 hrs by NCI protocol based SRB assay
[32] = system: HT-29; assay: Cytostatic activity in human HT-29 cells assessed as tumor growth inhibition measured after 48 hrs by NCI protocol based SRB assay
[33] = system: SNB-19; assay: Cytostatic activity in human SNB-19 cells assessed as tumor growth inhibition measured after 48 hrs by NCI protocol based SRB assay
[34] = system: M14; assay: Cytostatic activity in human M14 cells assessed as tumor growth inhibition measured after 48 hrs by NCI protocol based SRB assay
[35] = system: SK-MEL-5; assay: Cytostatic activity in human SK-MEL-5 cells assessed as tumor growth inhibition measured after 48 hrs by NCI protocol based SRB assay
[36] = system: UACC-62; assay: Cytostatic activity in human UACC-62 cells assessed as tumor growth inhibition measured after 48 hrs by NCI protocol based SRB assay
[37] = system: OVCAR-8; assay: Cytostatic activity in human OVCAR-8 cells assessed as tumor growth inhibition measured after 48 hrs by NCI protocol based SRB assay
[38] = system: TK-10; assay: Cytostatic activity in human TK-10 cells assessed as tumor growth inhibition measured after 48 hrs by NCI protocol based SRB assay
[39] = system: MCF7; assay: Cytostatic activity in human MCF7 cells assessed as tumor growth inhibition measured after 48 hrs by NCI protocol based SRB assay
[40] = read-out: LC50 (the source's name)

**Q.** N#Cc1c(-c2ccccc2)nc2c(c(-c3ccccc3)nn2-c2ccccc2)c1-c1ccc(O)cc1 was tested. Which GI50 [1] did it give?
**A.** 2.42 µM

**Q.** What about the CC50 [1, 40] of the same compound?
**A.** > 100 µM

**Q.** What about the GI50 [2] of the same compound?
**A.** 2.68 µM

**Q.** What about the CC50 [2, 40] of the same compound?
**A.** > 100 µM

**Q.** What about the GI50 [3] of the same compound?
**A.** 2.12 µM

**Q.** And the CC50 [3, 40]?
**A.** 9.53 µM

**Q.** And the GI50 [4]?
**A.** 2.57 µM

**Q.** What about the CC50 [4, 40] of the same compound?
**A.** 84.2 µM

**Q.** And the GI50 [5]?
**A.** 1.73 µM

**Q.** And the CC50 [5, 40]?
**A.** 6.13 µM

**Q.** And the GI50 [6]?
**A.** 1.57 µM

**Q.** And the CC50 [6, 40]?
**A.** 5.56 µM

**Q.** And the GI50 [7]?
**A.** 2.02 µM

**Q.** What about the CC50 [7, 40] of the same compound?
**A.** 14.9 µM

**Q.** What about the GI50 [8] of the same compound?
**A.** 1.86 µM

**Q.** What about the CC50 [8, 40] of the same compound?
**A.** 6.72 µM

**Q.** And the GI50 [9]?
**A.** 1.84 µM

**Q.** And the CC50 [9, 40]?
**A.** 6.53 µM

**Q.** And the GI50 [10]?
**A.** 2.51 µM

**Q.** What about the CC50 [10, 40] of the same compound?
**A.** 54.7 µM

**Q.** What about the GI50 [11] of the same compound?
**A.** 1.25 µM

**Q.** What about the CC50 [11, 40] of the same compound?
**A.** 6.1 µM

**Q.** What about the GI50 [12] of the same compound?
**A.** 1.88 µM

**Q.** And the CC50 [12, 40]?
**A.** 9.8 µM

**Q.** And the GI50 [13]?
**A.** 2.83 µM

**Q.** What about the CC50 [13, 40] of the same compound?
**A.** 47.2 µM

**Q.** What about the GI50 [14] of the same compound?
**A.** 1.9 µM

**Q.** And the CC50 [14, 40]?
**A.** 7.57 µM

**Q.** And the GI50 [15]?
**A.** 1.86 µM

**Q.** And the CC50 [15, 40]?
**A.** 7.39 µM

**Q.** What about the GI50 [16] of the same compound?
**A.** 2.39 µM

**Q.** And the CC50 [16, 40]?
**A.** 41.7 µM

**Q.** What about the GI50 [17] of the same compound?
**A.** 3.13 µM

**Q.** And the CC50 [17, 40]?
**A.** 6.55 µM

**Q.** What about the GI50 [18] of the same compound?
**A.** 1.8 µM

**Q.** What about the CC50 [18, 40] of the same compound?
**A.** 7.28 µM

**Q.** What about the GI50 [19] of the same compound?
**A.** 3.14 µM

**Q.** What about the CC50 [19, 40] of the same compound?
**A.** > 100 µM

**Q.** What about the GI50 [20] of the same compound?
**A.** 1.86 µM

**Q.** And the CC50 [20, 40]?
**A.** 90 µM

**Q.** What about the GI50 [21] of the same compound?
**A.** 1.41 µM

**Q.** And the CC50 [21, 40]?
**A.** 43.8 µM

**Q.** What about the GI50 [22] of the same compound?
**A.** 2.41 µM

**Q.** What about the CC50 [22, 40] of the same compound?
**A.** 18.5 µM

**Q.** And the TGI [23]?
**A.** 7.86 µM

**Q.** And the TGI [24]?
**A.** > 100 µM

**Q.** What about the TGI [25] of the same compound?
**A.** 4.49 µM

**Q.** And the TGI [26]?
**A.** 4.2 µM

**Q.** What about the TGI [27] of the same compound?
**A.** 3.26 µM

**Q.** What about the TGI [28] of the same compound?
**A.** 2.96 µM

**Q.** What about the TGI [29] of the same compound?
**A.** 3.84 µM

**Q.** What about the TGI [30] of the same compound?
**A.** 7.32 µM

**Q.** And the TGI [31]?
**A.** 3.47 µM

**Q.** What about the TGI [32] of the same compound?
**A.** 6.44 µM

**Q.** What about the TGI [33] of the same compound?
**A.** 3.8 µM

**Q.** What about the TGI [34] of the same compound?
**A.** 5.48 µM

**Q.** What about the TGI [35] of the same compound?
**A.** 3.19 µM

**Q.** What about the TGI [36] of the same compound?
**A.** 3.18 µM

**Q.** What about the TGI [37] of the same compound?
**A.** 11.7 µM

**Q.** And the TGI [38]?
**A.** 8.19 µM

**Q.** What about the TGI [39] of the same compound?
**A.** 4.76 µM

From ChEMBL document CHEMBL5131391, “One-pot three-component synthesis of novel pyrazolo[3,4-b]pyridines as potent antileukemic agents” (Eur J Med Chem, 2022)
